This assay concerns rabbit aortic smooth muscle. Put plainly: Ca+2 antagonism: relaxation of KCl-depolarised rabbit thoracic aorta strips. It counts as cell-based. As to conditions: 20 min, 100 mM KCl contracted aortic strips; for inhibition at 10 µM: Oryctolagus cuniculus, test compound 1 x 10^-5 M, 20 min after addition, mean of two experiments, read-out: percent relaxation (P. R.). How it is done:
Here, transverse strips (10 mm x 2.5 mm) from the thoracic aorta were cut and suspended vertically in a jacketed (37 °C - 50 ml volume) organ bath in physiological saline solution (PSS) aerated with 95 % Oz/5 % CO9. The composition of PSS was as follows (mM) : NaCI 112, KCI 5, NaHC03 25, KH2PO4 1, MgS04 1.2, CaCI2 2.5, dextrose 10. The lower end of each tissue strip was attached to a fixed post and the upper end to a Statham UC-4 transducer. Changes in force development were recorded on a Beckman Dynograph Polygraphic Recorder.
Following equilibration, the muscles were contracted in a depolarizing solution of PSS in which 100 mM KCI was substituted for an equimolar concentration of NaCI. Following attainment of steady-state isometric force (20 min.), the test compound was added to afford a final concentration of 1 x 10-^5 M. The inhibitory effect, expressed as percent relaxation, was determined from the mean of two experiments twenty minutes after the addition of the compound being tested.
The following examples illustrate the preparation of a representative number of compounds of this invention. After each example, the Ca^2+ antagonist activity of the compound is presented in terms of percent relaxation (P. R.) at 10-^5 M concentration unless indicated otherwise. Similarly, the percentage mortality of standard experimental test animals upon coronary ligation (C. L.) is presented for comparison with the control mortality rate of 73 percent of animals receiving vehicle alone.

As for `COc1cc(OC)cc(N(C(C)C)S(=O)(=O)CCCN(C)CCc2ccc(OC)c(OC)c2)c1` [Example 1, N-(3,5-Dimethoxyphenyl)-3-[(2-(3,4-dimethoxyphenyl)ethyl]-methylamino]-N-(1-methylethyl)-1-prop-anesulphonamide], the inhibition at 10 µM was determined as 90%. Further, where the note is “test compound at 10-^s M as printed”, the “percent relaxation (P. R.)” value was found to be 27.

For the compound `COc1ccc(CCN(C)CCCS(=O)(=O)N(c2ccc(OC)c(OC)c2)C(C)C)cc1OC` [Example 2, N-(3,4-Dimethoxyphenyl)-3-[[2-(3,4-dimethoxyphenyl)ethyl]methylaminol]-N-(1-methylethyl)-1-prop-anesulphonamide], the inhibition at 10 µM was 74%. For `COc1ccc(CCN(C)CCCS(=O)(=O)N(c2cc(OC)c(OC)c(OC)c2)C(C)C)cc1OC` [Example 3, 3-[[2-(3,4-Dimethoxyphenyl)ethyl]methylamino]-N-(1-methylethyl)-N-(3,4,5-trimethoxyphenyl)-1-prop-anesulphonamide], the inhibition at 10 µM amounted to 62%. As to `COc1ccc(CCN(C)CCCS(=O)(=O)N(c2cc(Cl)cc(Cl)c2)C(C)C)cc1OC` [Example 4, N-(3,5-Dichlorophenyl)-3-[[2-(3,4-dimethoxyphenyl)ethyl]methylamino]-N-(1-methylethyl)-1-propanesulp-honamide], the inhibition at 10 µM stood at 86%. `COc1ccc(CCN(C)CCCS(=O)(=O)Nc2cccc(C(F)(F)F)c2)cc1OC` [Example 5, N-(3-Trifluoromethylphenyl)-3-[[2-(3,4-dimethoxyphenyl)-ethyl)methylamino]-1-propanesulphonamide]: the inhibition at 10 µM was 51%. The same measure, in the same setting: the figure for `COc1ccc(CCN(C)CCCS(=O)(=O)N(c2cccc(C(F)(F)F)c2)C(C)C)cc1OC` [Example 6, N-(3-Trifluoromethylphenyl)-3-[[2-(3,4-dimethoxyphenyl)ethyl]methylamino]-N-(1-methylethyl)-1-prop-anesulphonamide] is 78.5%; for `COc1ccc(CCN(C)CCCN(C(C)C)S(=O)(=O)c2cccc(C(F)(F)F)c2)cc1OC` [Example 7, N-[3-[[2-(3,4-Dimethoxyphenyl)ethyl]methylamino]propyl]-N-(1-methylethyl)-3-(trifluoromethyl) benzenesulphonamide] it is 86.6%; for `COc1ccc(CCN(C)CCCCN(C(C)C)S(=O)(=O)c2ccc(Cl)c(Cl)c2)cc1OC` [Example 14, 3,4-Dichloro-N-(4-[[2-(3,4-dimethoxyphenyl)ethyl]methylamino]butyl]-N-(1-methylethyl) benzenesulphonamide] it is 68%. In the case of `COc1ccc(CCN(C)CCCN(C(C)C)S(=O)(=O)c2ccc(OC)c(OC)c2OC)cc1OC` [Example 15, N-[3-[[2-(3,4-dimethoxyphenyl)ethyl]methylamino]propyl]-N-(1-methylethyl)-2.3,4-trimethoxybenzenesul-phonamide], the inhibition at 10 µM came out at 80%.

For the origin of these results see patent publication EP0167245B1, “Anti-arrhythmic agents” (AMERICAN HOME PRODUCTS CORPORATION, priority 1984, dated 1986).
